Laboratory results reported in ChEMBL document CHEMBL5725801, “Fused heterocyclic compounds as CaM kinase inhibitors” (2018).
pEC50, pIC50: −log10 of the molar value.

assay: CaMKII delta Biochemical Assay: The biochemical activity of recombinant CaMKIIδ was measured by monitoring the phosphorylation of a target peptide using Homogenous Time Resolved Fluorescence (HTRF) technology from CisBio Bioassays. 10 pM […] (Life Technologie Corporation) was incubated for 1 hour with 110 nM calmodulin (EMD Millipore), 1 μM Biotin-STK1 (target peptide, CisBio Bioassays) and 12 μM ATP (Sigma-Aldrich) in a buffer containing 20 mM Hepes pH7.2, 10 mM MgCl2 and 1 mM CaCl2 as well as the compound to be tested or DMSO at a final concentration of 0.6%. The reaction was stopped with the addition of the detection buffer (containing EDTA) with Eu-cryptate labeled anti-phospho-STK1 antibody (CisBio Bioassays) and 125 nM XL665 labeled streptavidin (CisBio Bioassays).

In the case of `CCN1C[C@@H](F)C[C@H]1CNC(=O)c1ccnc(-c2cnn3ccc(-c4cccs4)nc23)c1`, the pIC50 was 8.15.

assay: CaMKII Cell-Based Activity: CaMKII activity in neonatal rat ventricular myocytes (NRVM) was measured by monitoring the phosphorylation level of phospholamban using high-content imaging. NRVMs were plated in a clear bottom 384-well plate in medium supplemented with 10% fetal bovine serum (FBS) and incubated at 37° C., 5% CO2 overnight. The medium was changed to a serum-free medium and compounds were dosed to the cells. The cells were incubated at 37° C., 5% CO2 for 4 hours and were then treated with 100 nM ATX-II (Alomone Labs) to activate CaMKII. 10 minutes after the addition of ATX-II, the cells were fixed with 4% formaldehyde followed by permeabilization with 0.1% triton X100. The fixed cells were stained with an anti-phospho-phospholamban primary antibody (Santa Cruz Biotechnology) and an Alexa488-labeled anti-rabbit IgG secondary antibody (Life Technologies Corporation) as well as Hoechst 33342 (Life Technologies Corporation). The cells were imaged using an ArrayScan VTI (Cellomics) and analyzed for cells containing a positive fluorescent signal at 485 nm, reported as % responder. The % responders were plotted against the compound concentration to determine the compounds EC50.

`CCN(CC)[C@@H](C)CNC(=O)c1cc(OCCOC)nc(-c2cnn3ccc(-c4cccs4)nc23)c1` and `CCN(CC)[C@@H](C)CNC(=O)c1cc(OCCCOC)nc(-c2cnn3ccc(-c4cccs4)nc23)c1` are within 0.2 log units of each other in pEC50: 7.49 for the first, 7.42 for the second.

`CCN(CC)[C@@H](C)CNC(=O)c1cc(O[C@H]2CCOC2)nc(-c2cnn3ccc(-c4cccs4)nc23)c1` and `CCN(CC)[C@@H](C)CNC(=O)c1cc(O[C@@H]2CCOC2)nc(-c2cnn3ccc(-c4cccs4)nc23)c1` are within 0.2 log units of each other in pEC50: 7.24 for the first, 7.18 for the second.

`CCC(CNC(=O)c1cc(-c2cnn3ccc(-c4cccs4)nc23)nc(N2CC[C@H]2C(=O)NC)c1)N(CC)CC` (stereo not given in full) and `CC[C@@H](CNC(=O)c1cc(-c2cnn3ccc(-c4cccs4)nc23)nc(N2CC[C@H]2C(=O)NC)c1)N(CC)CC` (single isomer, unassigned) are within 0.2 log units of each other in pEC50: 7.43 for the first, 7.42 for the second.

`CCN(CC)[C@@H](C)CNC(=O)c1cc(OCC(C)(C)O)nc(-c2cnn3ccc(-c4cccs4)nc23)c1` and `CCN(CC)[C@@H](C)CNC(=O)c1cc(OC[C@H](C)OC)nc(-c2cnn3ccc(-c4cccs4)nc23)c1` are within 0.2 log units of each other in pEC50: 7.42 for the first, 7.32 for the second.

Going from `CCN1C[C@@H](F)C[C@H]1CNC(=O)c1ccnc(-c2cnn3ccc(-c4cccs4)nc23)c1` to `CCN(CC)[C@@H](C)CNC(=O)c1cccc(-c2cnn3ccc(-c4cccs4)nc23)n1`, the pEC50 falls from 7.27 to 6.99 (0.28 log units).

First: CCN(CC)[C@@H](C)CNC(=O)c1cc(OCC2(C)COC2)nc(-c2cnn3ccc(-c4cccs4)nc23)c1
Second: CCN(CC)[C@@H](C)CNC(=O)c1cc(OCCN(C)C)nc(-c2cnn3ccc(-c4cccs4)nc23)c1
The pEC50 of the first is 0.32 log units higher: 7.26 for the first, 6.94 for the second. The first is the more potent here.

Going from `CCCN(CC)[C@@H](C)CNC(=O)c1cc(-c2cnn3ccc(-c4cccs4)nc23)nc(N2CC[C@H]2C(=O)NC)c1` to `CC[C@H](CNC(=O)c1cc(-c2cnn3ccc(-c4cccs4)nc23)nc(N2CC[C@H]2C(=O)NC)c1)N(CC)CC` (single isomer, unassigned), the pEC50 falls from 7.87 to 7.46 (0.41 log units). The first is the more potent here.

Going from `CCN(CC)[C@@H](C)CNC(=O)c1cc(-c2cnn3ccc(-c4ccc(F)s4)nc23)nc(N2CC[C@H]2C(=O)NC)c1` to `CCN(CC)[C@@H](CO)CNC(=O)c1cc(-c2cnn3ccc(-c4cccs4)nc23)nc(N2CC[C@H]2C(=O)NC)c1`, the pEC50 falls from 8.00 to 7.14 (0.86 log units).

`CCN(CC)[C@@H](C)CNC(=O)c1cc(OCc2cccnc2)nc(-c2cnn3ccc(-c4cccs4)nc23)c1` and `CCN(CC)[C@@H](C)CNC(=O)c1cc(OCc2ccc[n+]([O-])c2)nc(-c2cnn3ccc(-c4cccs4)nc23)c1` are within 0.2 log units of each other in pEC50: 7.25 for the first, 7.16 for the second.

Compared with `CCN(CC)CCNC(=O)c1cc(-c2cnn3ccc(-c4cccs4)nc23)nc(N2CC[C@H]2C(=O)NC)c1`, `CC[C@@H](CNC(=O)c1cc(-c2cnn3ccc(-c4cccs4)nc23)nc(N2CC[C@H]2C(=O)NC)c1)N(CC)CCO` is 0.22 log units lower in pEC50: 7.46 for the first, 7.24 for the second. The first is the more potent here.

First: CCN(CC)[C@@H](C)CNC(=O)c1cncc(-c2cnn3ccc(-c4cccs4)nc23)c1
Second: CCN(CC)[C@@H](C)CNC(=O)c1cc(OCCc2cnccn2)nc(-c2cnn3ccc(-c4cccs4)nc23)c1
The pEC50 of the first is 0.47 log units higher: 7.66 for the first, 7.19 for the second. The first is the more potent here.

Going from `CCN(CC)[C@@H](C)CNC(=O)c1cc(OC[C@H]2CCCO2)nc(-c2cnn3ccc(-c4cccs4)nc23)c1` to `CCN(CC)[C@@H](C)CNC(=O)c1cc(OCCN2CCOCC2)nc(-c2cnn3ccc(-c4cccs4)nc23)c1`, the pEC50 falls from 7.56 to 7.06 (0.50 log units). The first is the more potent here.
